Ki and IC50 data for seven compounds are collected here from patent US20190085024A1, “Alpha-Ketoamide Inhibitors Of Cysteine Proteases” (Phelix Therapeutics, priority 2017, published 2019).

Each structure is given as a SMILES string. *1 amine or outer side, *2 acyl side, *3 side chain or, on linkers, in order; H or OH if unused. Where a SMILES comes first, the peptide text is derived from it. [ ]: non-standard residue; d: D form. The star is where a group is joined. ξ: configuration not given here. ξβ3hPhe(2-oxo) = O=C(C(=O)[*:2])C(Cc1ccccc1)N[*:1]; Cbz = O=C(OCc1ccccc1)*

The target in one experiment is Cathepsin L (Homo sapiens, UniProt P07711). Put plainly: Cathepsin L enzyme assay. It counts as biochemical. The note with it: Ki by Morrison equation; pH 5.5, substrate Z-Phe-Arg-Amc; read-out: Cat L. The text has this:
Two wells contained DMSO only for controls.
Velocity was converted to μM/sec.

The next experiment has as its target Calpain. Put plainly: Calpain enzyme assay. It counts as biochemical. Particulars: Ki by Morrison equation; pH 7.5, 5 mM CaCl2.
The target of another experiment is Cathepsin B (Homo sapiens, UniProt P07858). In words: Cathepsin B enzyme assay. Particulars: Cat B (μM), Ki by Morrison equation; pH 6.0, substrate Z-Phe-Arg-Amc.
In another experiment the test system is MERS WT. In words: microbe, parasite or virus in culture. It counts as cell-based. The note with it: Middle East respiratory syndrome-related coronavirus, read-out: MERS WT (μM).

Chain of Cathepsin L (P07711 114-333, species assumed): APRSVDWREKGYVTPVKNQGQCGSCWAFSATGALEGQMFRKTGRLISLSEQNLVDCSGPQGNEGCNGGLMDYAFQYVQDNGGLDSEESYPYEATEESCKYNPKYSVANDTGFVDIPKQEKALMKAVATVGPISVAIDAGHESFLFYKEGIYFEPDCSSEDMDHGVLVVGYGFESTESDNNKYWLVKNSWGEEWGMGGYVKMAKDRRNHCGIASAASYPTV

On to `CC(C)CC(NC(=O)Cc1ccc(-c2ccccc2)cc1)C(=O)NC(C)C(=O)C(=O)NCC(=O)NC(Cc1ccc2ccccc2c1)C(N)=O` (stereo not shown) [PHELIX253, 2-(2-([1,1′-biphenyl]-4-yl)acetamido)-N-(4-((2-((1-amino-3-(naphthalen-2-yl)-1-oxopropan-2-yl)amino)-2-oxoethyl)amino)-3,4-dioxobutan-2-yl)-4-methylpentanamide], for which the Ki on Cathepsin L was found to be 21.5 nM; on Calpain it was 21.4 nM; on Cathepsin B, 1.17 µM. Besides, the IC50 with MERS WT was > 30 µM.
The matching figures for `CC(C)CC(NC(=O)OCc1ccccc1)C(=O)NC(Cc1ccccc1)C(=O)C(=O)NC(C)C(=O)NC(CCC(=O)O)C(=O)NC(CCCNC(=N)N)C(N)=O` (stereo not drawn) [PHELIX252, 15-((1-amino-5-guanidino-1-oxopentan-2-yl)carbamoyl)-8-benzyl-5-isobutyl-12-methyl-3,6,9,10,13-pentaoxo-1-phenyl-2-oxa-4,7,11,14-tetraazaoctadecan-18-oic acid] (Cbz-L[ξβ3hPhe(2-oxo)]AER-NH2; configuration not given here): 5.03 nM, 17 nM, > 10 µM and > 30 µM.
The corresponding values for `CC(NC(=O)C(Cc1ccccc1)NC(=O)Cc1ccccc1)C(=O)C(=O)NC(Cc1cccc(C(F)(F)F)c1)C(=O)NC(Cc1ccc(-c2ccccc2)cc1)C(N)=O` (stereo not shown) [PHELIX264, N-(1-((3-([1,1′-biphenyl]-4-yl)-1-amino-1-oxopropan-2-yl)amino)-1-oxo-3-(3-(trifluoromethyl)phenyl)propan-2-yl)-2-oxo-3-(3-phenyl-2-(2-phenylacetmido)propanamido)butanamide] are 1.91 nM, > 10000 nM, > 10 µM and 2.68 µM.
The matching figures for `CCC(C)C(NC(=O)C(CC(C)C)NC(=O)C(Cc1ccccc1)NC(=O)OCc1ccccc1)C(=O)C(=O)NC(CCCNC(=N)N)C(N)=O` (stereo not shown) [PHELIX268, benzyl (1-amino-10-(sec-butyl)-6-carbamoyl-1-imino-13-isobutyl-8,9,12,15-tetraoxo-17-phenyl-2,7,11,14-tetraazaheptadecan-16-yl)carbamate]: 0.95 nM, 10.6 nM, 0.171 µM and > 30 µM.
`CC(NC(=O)C(Cc1ccccc1)NC(=O)Cc1ccccc1)C(=O)C(=O)NC(Cc1ccccc1F)C(=O)NC(Cc1ccc(-c2ccccc2)cc1)C(N)=O` (stereo not shown) [PHELIX263, N-(1-((3-([1,1′-biphenyl]-4-yl)-1-amino-1-oxopropan-2-yl)amino)-3-(2-fluorophenyl)-1-oxopropan-2-yl)-2-oxo-3-(3-phenyl-2-(2-phenylacetamido)propanamido)butanamide]: the results for the Ki at Cathepsin L, at Calpain and on Cathepsin B were 0.06 nM, > 10000 nM and 0.6 µM, respectively. Also, in the experiment on MERS WT, the IC50 was determined as 0.99 µM.
Regarding `CC(NC(=O)C(Cc1ccccc1)NC(=O)Cc1ccccc1)C(=O)C(=O)NC(CC1CCCCC1)C(=O)NC(Cc1ccc(-c2ccccc2)cc1)C(N)=O` (stereo not shown) [PHELIX259, N-(1-((3-([1,1′-biphenyl]-4-yl)-1-amino-1-oxopropan-2-yl)amino)-3-cyclohexyl-1-oxopropan-2-yl)-2-oxo-3-(3-phenyl-2-(2-phenylacetamido)propanamido)butanamide], the Ki on Cathepsin L is 1.93 nM; at Calpain it was > 10000 nM; on Cathepsin B it was > 10 µM. The IC50 with MERS WT came to 1.1 µM.
The matching figures for `CC(C)CC(NC(=O)OCc1ccccc1)C(=O)NC(Cc1ccccc1)C(=O)C(=O)NCC(=O)NC(Cc1ccc2ccccc2c1)C(N)=O` (stereo not shown) [PHELIX256, benzyl (1-((4-((2-((1-amino-3-(naphthalen-2-yl)-1-oxopropan-2-yl)amino)-2-oxoethyl)amino)-3,4-dioxo-1-phenylbutan-2-yl)amino)-4-methyl-1-oxopentan-2-yl)carbamate]: 1.47 nM, 12.2 nM, 0.24 µM and 4.97 µM.
